Holding throughout (format): functional
For test [1], the system named is Staphylococcus aureus. The experiment in a line: Compound was evaluated for anti-methicillin-resistant activity against methicillin-resistant Staphylococcus aureus CL 1991.
Test [2] deals with Staphylococcus aureus. The test is described as follows: Relative potency was calculated against Methicillin-resistant Staphylococcus aureus (1) by dividing the species index of Imipenem by the species index of the test compound.
In test [3] the test system is Pseudomonas aeruginosa. The experiment in a line: Relative potency was calculated against Pseudomonas aeruginosa (5 ) by dividing the species index of Imipenem by the species index of the test compound.
For test [4], the system named is Staphylococcus aureus. The experiment in a line: Compound was evaluated for anti-methicillin-resistant activity against methicillin-resistant Staphylococcus aureus CL 1985.
The test system of test [5] is Staphylococcus aureus. The experiment in a line: Compound was evaluated for anti-methicillin-resistant activity against methicillin-resistant Staphylococcus aureus CL 1989.
For test [6], the system named is Escherichia coli. The test is described as follows: Relative potency was calculated against Escherichia coli (5) by dividing the species index of Imipenem by the species index of the test compound.
Test [7] has as its system Staphylococcus aureus. The test is described as follows: Compound was evaluated for anti-methicillin-resistant activity against methicillin-resistant Staphylococcus aureus.
Test [8] relates to Staphylococcus aureus. The test is described as follows: Compound was evaluated for anti-methicillin-resistant activity against methicillin-resistant Staphylococcus aureus CL 3033.
The test system of test [9] is Staphylococcus aureus. The test is described as follows: Compound was evaluated for anti-methicillin-resistant activity against methicillin-resistant Staphylococcus aureus CL 714.
Test [10] has as its system Staphylococcus aureus. The test is described as follows: Compound was evaluated for anti-methicillin-resistant activity against methicillin-resistant Staphylococcus aureus CL 3025.
In test [11] the test system is Staphylococcus sp. The experiment in a line: Compound was evaluated for anti-methicillin-resistant activity against methicillin-resistant coagulase-negative Staphylococci.
The test system of test [12] is Staphylococcus aureus. The test is described as follows: Compound was evaluated for anti-methicillin-resistant activity against methicillin-resistant Staphylococcus aureus CL 3043.
The test system of test [13] is Proteus. The experiment in a line: Relative potency was calculated against Proteus species. (5) by dividing the species index of Imipenem by the species index of the test compound.
For test [14], the system named is Staphylococcus aureus. The experiment in a line: Relative potency was calculated against Methicillin-sensitive Staphylococcus aureus (4) by dividing the species index of Imipenem by the species index of the test compound.
Test [15] deals with Staphylococcus aureus. The test is described as follows: Compound was evaluated for anti-methicillin-resistant activity against methicillin-resistant Staphylococcus aureus CL 1990.
Test [16] deals with Staphylococcus sp. The test is described as follows: Compound was evaluated for anti-methicillin-resistant activity against methicillin-resistant coagulase-negative Staphylococci CL 202.
Test [17] concerns Staphylococcus sp. The experiment in a line: Compound was evaluated for anti-methicillin-resistant activity against methicillin-resistant coagulase-negative Staphylococci CL 227.
Test [18] relates to Staphylococcus aureus. The test is described as follows: Compound was evaluated for anti-methicillin-resistant activity against methicillin-resistant Staphylococcus aureus CL 792.
Test [19] deals with Staphylococcus sp. The experiment in a line: Compound was evaluated for anti-methicillin-resistant activity against methicillin-resistant coagulase-negative Staphylococci CL 546.
Test [20] deals with Staphylococcus aureus. The experiment in a line: Compound was evaluated for anti-methicillin-resistant activity against methicillin-resistant Staphylococcus aureus CL 1395.
The test system of test [21] is Enterococcus sp. The experiment in a line: Relative potency was calculated against Enterococcus species. (3) by dividing the species index of Imipenem by the species index of the test compound.
Test [22] has as its system Staphylococcus sp. The test is described as follows: Compound was evaluated for anti-methicillin-resistant activity against methicillin-resistant coagulase-negative Staphylococci CL 171.
Test [23] has as its system Serratia. The experiment in a line: Relative potency was calculated against Serratia species. (2) by dividing the species index of Imipenem by the species index of the test compound.
Test [24] has as its system Klebsiella sp. The test is described as follows: Relative potency was calculated against Klebsiella species. (5) by dividing the species index of Imipenem by the species index of the test compound.
Test [25] concerns Staphylococcus aureus. The experiment in a line: Compound was evaluated for anti-methicillin-resistant activity against methicillin-resistant Staphylococcus aureus CL 3031.
In test [26] the test system is Enterobacter sp. The experiment in a line: Relative potency was calculated against Enterobacter species. (6) by dividing the species index of Imipenem by the species index of the test compound.
In test [27] the target is T1, Dipeptidase 1 (Sus scrofa) (UniProt P22412).
T1 sequence (whole entry): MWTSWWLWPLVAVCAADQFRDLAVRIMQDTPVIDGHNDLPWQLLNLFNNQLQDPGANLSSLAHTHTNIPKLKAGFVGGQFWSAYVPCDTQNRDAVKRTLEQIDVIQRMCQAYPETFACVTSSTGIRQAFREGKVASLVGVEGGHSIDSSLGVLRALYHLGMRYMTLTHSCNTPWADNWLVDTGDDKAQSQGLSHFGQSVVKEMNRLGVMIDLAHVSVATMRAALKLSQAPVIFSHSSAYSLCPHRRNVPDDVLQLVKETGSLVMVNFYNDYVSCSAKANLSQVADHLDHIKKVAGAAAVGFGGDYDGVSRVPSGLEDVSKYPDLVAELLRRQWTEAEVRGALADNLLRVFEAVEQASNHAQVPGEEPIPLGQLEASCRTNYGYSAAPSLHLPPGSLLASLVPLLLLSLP
The test is described as follows: DHP-I susceptibility relative to imipenem.

Test [28] has as its system Staphylococcus aureus. The experiment in a line: Compound was evaluated for anti-methicillin-resistant activity against methicillin-resistant Staphylococcus aureus CL 1983.
Test [29] concerns Klebsiella sp. The experiment in a line: Antibacterial activity against Klebsiella species. (5).
The test system of test [30] is Pseudomonas aeruginosa. The test is described as follows: Antibacterial activity against Pseudomonas aeruginosa (5 ).
Test [31] has as its system Serratia. The test is described as follows: Antibacterial activity against Serratia species. (2).
Test [32] concerns Proteus. The experiment in a line: Antibacterial activity against Proteus species. (5).
Test [33] concerns Enterobacter sp. The test is described as follows: Antibacterial activity against Enterobacter species. (6).
Test [34] deals with Escherichia coli. The experiment in a line: Antibacterial activity against Escherichia coli (5).
Test [35] relates to Staphylococcus aureus. The test is described as follows: Antibacterial activity against Methicillin-sensitive Staphylococcus aureus (4).
Test [36] has as its system Enterococcus sp. The test is described as follows: Antibacterial activity against Enterococcus species. (3).
The test system of test [37] is Staphylococcus aureus. The test is described as follows: Antibacterial activity against Methicillin-resistant Staphylococcus aureus (1).

≈ marks a conversion by molar mass, not a printed value.

As a reminder, the MIC is the lowest concentration found to suppress growth. A high value points to weaker potency. As usually defined, the MIC50 is an inhibitory concentration at the 50% level, which refers to growth in some studies and to a panel of isolates in others. One may read the MIC90 as the lowest concentration that inhibits either 90% of growth or 90% of the strains tested, depending on the study. With `C[C@@H](O)[C@H]1C(=O)N2C(C(=O)[O-])=C(c3cccc(-c4ccc(C[n+]5ccccc5N)cc4)c3)C[C@H]12`, the minimal inhibitory concentration (MIC) in test [1] was determined as 1 µg/mL (≈ 2.2 µM); in test [4] it was 1 µg/mL (≈ 2.2 µM); in test [5], 0.5 µg/mL (≈ 1.1 µM); in test [8], 2 µg/mL (≈ 4.39 µM); in [9] it was 2 µg/mL (≈ 4.39 µM); in test [10], 1 µg/mL (≈ 2.2 µM). In addition, the MIC in [12] amounted to 1 µg/mL (≈ 2.2 µM); in [15] it was 1 µg/mL (≈ 2.2 µM); in test [16], 2 µg/mL (≈ 4.39 µM); in test [17], 2 µg/mL (≈ 4.39 µM); in [18], 1 µg/mL (≈ 2.2 µM); in test [19] it was 2 µg/mL (≈ 4.39 µM). The minimal inhibitory concentration (MIC) in test [20] is 2 µg/mL (≈ 4.39 µM); in test [22], 4 µg/mL (≈ 8.78 µM); in test [25], 2 µg/mL (≈ 4.39 µM); in test [28], 0.5 µg/mL (≈ 1.1 µM). Moreover, the Relative potency is reported as 154 in [2]; 0.01 in test [3]; 0.11 in test [6]; 0.38 in test [13]; 0.43 in test [14]; 6.2 in [21]. Also, the Relative potency in test [23] is 0.11; in [24], 0.04; in test [26], 0.04. Moreover, the MIC50 in [7] was found to be 1 µg/mL (≈ 2.2 µM); in test [11] it was 2 µg/mL (≈ 4.39 µM). Moreover, the MIC90 in test [7] was determined as 2 µg/mL (≈ 4.39 µM); in [11], 4 µg/mL (≈ 8.78 µM). This molecule also gave a Susceptibility in test [27] of 0.04.

Take `C[C@@H](O)[C@H]1C(=O)N2C(C(=O)O)=C(SCCNC=N)C[C@H]12` [IMIPENEM ANHYDROUS]: the MIC in test [1] is 1 µg/mL (≈ 3.34 µM); in test [4], 1 µg/mL (≈ 3.34 µM); in [5], 2 µg/mL (≈ 6.68 µM); in [8] it was 128 µg/mL (≈ 428 µM); in [9], 32 µg/mL (≈ 107 µM); in test [10] it was 2 µg/mL (≈ 6.68 µM). Further, the MIC came out at 0.29 µg/mL (≈ 0.969 µM) in test [29]; 16 µg/mL (≈ 53.4 µM) in [12]; 0.36 µg/mL (≈ 1.2 µM) in [30]; 0.29 µg/mL (≈ 0.969 µM) in test [31]; 0.78 µg/mL (≈ 2.61 µM) in test [32]; 4 µg/mL (≈ 13.4 µM) in [15]. The MIC in [16] was more than 128 µg/mL; in test [33], 0.18 µg/mL (≈ 0.601 µM); in test [17] it was 64 µg/mL (≈ 214 µM); in [18], 32 µg/mL (≈ 107 µM); in test [19], 64 µg/mL (≈ 214 µM); in test [20] it was 64 µg/mL (≈ 214 µM). Further, the minimal inhibitory concentration (MIC) in [22] was more than 128 µg/mL; in test [34], 0.19 µg/mL (≈ 0.635 µM); in [25], 32 µg/mL (≈ 107 µM); in test [35], 0.01 µg/mL (≈ 0.0334 µM); in test [36], 1.8 µg/mL (≈ 6.01 µM); in [37], 33 µg/mL (≈ 110 µM). This molecule also gave a minimum inhibitory concentration (MIC) in test [28] of 1 µg/mL (≈ 3.34 µM). The MIC50 is 4 µg/mL (≈ 13.4 µM) in test [7] and 64 µg/mL (≈ 214 µM) in [11]. In addition, the MIC90 was 64 µg/mL (≈ 214 µM) in test [7] and more than 128 µg/mL in [11]. For the same molecule, the Susceptibility in test [27] is 1.

For the molecule `COc1cccc(OC)c1C(=O)N[C@@H]1C(=O)N2[C@@H]1SC(C)(C)[C@@H]2C(=O)[O-].[Na+]`, the MIC in [1] is 64 µg/mL; in test [4], 64 µg/mL; in test [5] it was 64 µg/mL; in test [8] it was more than 512 µg/mL; in test [9] it was 512 µg/mL; in test [10], 64 µg/mL. In addition, the MIC in test [12] is 128 µg/mL; in test [15], 128 µg/mL; in test [16], more than 512 µg/mL; in test [17] it was 512 µg/mL; in [18] it was 512 µg/mL; in test [19] it was more than 512 µg/mL. Also, the MIC is 512 µg/mL in test [20], more than 512 µg/mL in test [22], 256 µg/mL in [25] and 64 µg/mL in [28]. For the same molecule, the MIC50 is 128 µg/mL in test [7] and more than 512 µg/mL in test [11]. Also, the MIC90 in [7] is 512 µg/mL; in test [11], more than 512 µg/mL.

For the molecule `C[C@@H](O)[C@H]1C(=O)N2C(C(=O)[O-])=C(c3cccc(C[n+]4ccccc4N)c3)C[C@H]12`, the Relative potency in test [2] is given as 2; in test [3], 0.02; in [6], 1.7; in [13], 4.2; in test [14] it was 0.5; in test [21], 12.9. Also, the Relative potency was 4.4 in test [23], 1.1 in test [24] and 3 in test [26]. Besides, in [27], the Susceptibility is 0.11.

Regarding `CN[C@H](CC(C)C)C(=O)N[C@H]1C(=O)N[C@@H](CC(N)=O)C(=O)N[C@H]2C(=O)N[C@H]3C(=O)N[C@H](C(=O)N[C@H](C(=O)O)c4cc(O)cc(O)c4-c4cc3ccc4O)[C@H](O)c3ccc(c(Cl)c3)Oc3cc2cc(c3O[C@@H]2O[C@H](CO)[C@@H](O)[C@H](O)[C@H]2O[C@H]2C[C@](C)(N)[C@H](O)[C@H](C)O2)Oc2ccc(cc2Cl)[C@H]1O` [VANCOMYCIN], the MIC50 amounted to 1 µg/mL (≈ 0.69 µM) in test [7] and 4 µg/mL (≈ 2.76 µM) in test [11]. For the same molecule, the MIC90 in test [7] was found to be 2 µg/mL (≈ 1.38 µM); in test [11], 8 µg/mL (≈ 5.52 µM). For the same molecule, the MIC in test [16] amounted to 8 µg/mL (≈ 5.52 µM); in test [17] it was 2 µg/mL (≈ 1.38 µM); in test [19], 4 µg/mL (≈ 2.76 µM); in [22], 8 µg/mL (≈ 5.52 µM).

As for `C[C@@H](O)[C@H]1C(=O)N2C(C(=O)[O-])=C(c3ccc(-c4ccc(C[n+]5ccc(N(C)C)cc5)cc4)cc3)C[C@H]12`, the Relative potency in [2] was 3.9; in test [3], 0.013; in test [6] it was 0.31; in [13], 0.44; in [14] it was 0.16; in [21], 2. Moreover, the Relative potency in [23] is 0.26; in test [24] it was 0.04; in test [26], 0.12. The Susceptibility in [27] was determined as 0.46.
